Data from patent US20130303763A1, “METHODS AND COMPOSITIONS FOR THE TREATMENT OF NECROTIZING ENTEROCOLITIS” (priority 2012, published 2013).

System: mice suffering from NEC
Test: Treatment of necrotizing enterocolitis (NEC) induced in mice by a 5 day protocol of formula (gavage) feeding and hypoxia
Format: in vivo, mice (C57BL/6)
Protocol: Ten day-old breastfed SERT knockout mice, TPH1 knockout mice and wildtype littermate mice (C57BL/6) were subjected to a 5 day protocol of formula (gavage) feeding and hypoxia. This protocol reproducibly induces NEC in mice. Weights of all groups were monitored daily and cytokines were analyzed in the distal ileum at day 5. This experiment was then repeated using two groups of mice that received 100 mg/kg or 200 mg/kg of (2S)-ethyl 2-amino-3-(4-(2-amino-6-(2,2,2-trifluoro-1-(3′-fluoro-[1,1′-biphenyl]-4-yl)ethoxy)pyrimidin-4-yl)phenyl)propanoate (LP-920540), and a control group that received vehicle.

With `CCOC(=O)[C@@H](N)Cc1ccc(-c2cc(OC(c3ccc(-c4cccc(F)c4)cc3)C(F)(F)F)nc(N)n2)cc1` (stereo partly drawn) [LP-920540, (2S)-ethyl 2-amino-3-(4-(2-amino-6-(2,2,2-trifluoro-1-(3′-fluoro-[1,1′-biphenyl]-4-yl)ethoxy)pyrimidin-4-yl)phenyl)propanoate] as the molecule, how does the “weight loss versus vehicle-treated animals (FIG. 1)” value (100 or 200 mg/kg, five days of the experiment) read?
Its value is “lost significantly less weight”.

And the “mortality (FIG. 2)” value (100 or 200 mg/kg, vehicle treated animals 50%)?
Its value is 5-10%.

What about the “levels of transcripts encoding IL-6 versus vehicle-treated mice” value (distal ileum at day 5) of the same molecule?
Its value is “significantly less upregulated”.

What about the “levels of transcripts encoding IL-18 versus vehicle-treated mice” value (distal ileum at day 5) of the same molecule?
Its value is “significantly less upregulated”.
